The text below walks through data of patent publication USRE48842E1, “Pyrimido-pyrrolo-oxazine-dione compound inhibitors of the cystic fibrosis transmembrane conductance regulator protein and uses therefor” (The Regents of the University of California, priority 2011, dated 2021).

Data set [1] can be described thus: Aqueous solubility. Type of data set: physicochemical.
Data set [2] deals with human wildtype CFTR (Homo sapiens, UniProt P13569). The data set is described as follows: Fluorescence plate reader assay of CFTR inhibition (iodide influx). To be noted: Determined by micro-plate reader assay; FRT cells co-expressing human wild type CFTR and YFP-H148Q. Further details: expressed in transfected cells; host or cells: Fischer rat thyroid (FRT) cells. The data set is classed as cell-based. On the procedure: Cell Culture and Plate Reader Assay of CFTR Inhibition—Fischer rat thyroid (FRT) cells co-expressing human wild type CFTR and the halide indicator YFP-H148Q were cultured in 96-well black-walled microplates (Corning Costar) at a density of 20,000 cells per well in Coon's modified F12 medium containing 10% fetal bovine serum, 2 mM L-glutamine, 100 U/mL penicillin and 100 μg/mL streptomycin. CFTR chloride conductance was assayed at 48 h after plating on a FluoStar fluorescence plate reader (BMG Lab Technologies) as described (see, e.g., Ma et al., J Clin Invest. 2002, supra). Each well was washed 3 times with PBS, leaving 60 μL PBS. Test compounds were added and incubated with the cells for 45 min. Then, 5 μL of a CFTR-activating cocktail (10 μM forskolin, 100 μM IBMX, 20 μM apigenin in PBS) was added. After 15 min, each well was assayed for iodide influx by recording fluorescence continuously (200 ms per point) for 2 s (baseline) and then for 10 s after rapid addition of 160 μL of isosmolar PBS in which 137 mM chloride was replaced by iodide. The initial rate of iodide influx was computed from fluorescence data by non-linear regression.
Initial testing of the compounds for the capability to inhibit CFTR was performed using a plate-reader assay in which iodide influx was measured in FRT cells co-expressing human wild type CFTR and the iodide-sensing yellow fluorescent protein YFP-H148Q/1152L. […] Table B below provides IC50 values for PPQ and BPO compounds.
The relative IC50 values obtained from the plate reader assay are useful for comparisons. Absolute IC50 values obtained from the plate-reader assay are approximate, generally underestimating compound potency because of assay non-linearities, pH-dependent YFP fluorescence, the use of iodide instead of chloride, and compound dilution at the start of the assay (see, e.g., Galietta et al., Am. J. Physiol. Cell Physiol. 281:C1734-42 (2001)).

Data set [3] relates to E13.5 embryonic kidneys. The data set is described as follows: Embryonic kidney organ culture model of PKD (8-Br-cAMP-induced cyst growth). Type of data set: cell-based, mouse. How it is done:
Embryonic Organ Culture Model of PKD—Mouse embryos were obtained at embryonic day 13.5 (E13.5). Metanephroi were dissected and placed on transparent Falcon […] porous cell culture inserts as described (see, e.g., Tradtrantip et al., J. Med. Chem. 2009, supra). To the culture inserts was added DMEM/Ham's F-12 nutrient medium supplemented with 2 mM L-glutamine, 10 mM HEPES, 5 μg/mL insulin, 5 μg/mL transferrin, 2.8 nM selenium, 25 ng/ml prostaglandin E, 32 pg/ml T3, 250 U/ml penicillin, and 250 μg/ml streptomycin. Kidneys were maintained in a 37° C. humidified CO2 incubator for up to 8 days. Culture medium containing 100 μM 8-Br-cAMP, with or without test compound, was replaced (in the lower chamber) every 12 h. Kidneys were photographed using a Nikon inverted microscope (Nikon TE 2000-S) equipped with 2× objective lens, 520 nm bandpass filter, and high-resolution CCD camera. Percentage cyst area was calculated as total cyst area divided by total kidney area.
An established embryonic ex vivo kidney organ culture model of PKD was used to test BPO-27 (racemic mixture of R and S forms) efficacy in reducing cAMP agonist-induced renal cystogenesis (see Example 30). […]

In data set [4] the test system is E13.5 embryonic kidneys. To be noted: from Tradtrantip et al., J. Med. Chem. 2009; read-out: IC50 for inhibition of cyst growth; cited from earlier work.
Data set [5] addresses CFTR (Homo sapiens, UniProt P13569). To be noted: literature values; read-out: IC50 for CFTR inhibition; cited from earlier work.

Values after ≈ are worked out from the molar mass of the structure shown. Like-named read-outs stand apart in the source and are kept apart here.

Sequence of human wildtype CFTR (P13569 whole entry): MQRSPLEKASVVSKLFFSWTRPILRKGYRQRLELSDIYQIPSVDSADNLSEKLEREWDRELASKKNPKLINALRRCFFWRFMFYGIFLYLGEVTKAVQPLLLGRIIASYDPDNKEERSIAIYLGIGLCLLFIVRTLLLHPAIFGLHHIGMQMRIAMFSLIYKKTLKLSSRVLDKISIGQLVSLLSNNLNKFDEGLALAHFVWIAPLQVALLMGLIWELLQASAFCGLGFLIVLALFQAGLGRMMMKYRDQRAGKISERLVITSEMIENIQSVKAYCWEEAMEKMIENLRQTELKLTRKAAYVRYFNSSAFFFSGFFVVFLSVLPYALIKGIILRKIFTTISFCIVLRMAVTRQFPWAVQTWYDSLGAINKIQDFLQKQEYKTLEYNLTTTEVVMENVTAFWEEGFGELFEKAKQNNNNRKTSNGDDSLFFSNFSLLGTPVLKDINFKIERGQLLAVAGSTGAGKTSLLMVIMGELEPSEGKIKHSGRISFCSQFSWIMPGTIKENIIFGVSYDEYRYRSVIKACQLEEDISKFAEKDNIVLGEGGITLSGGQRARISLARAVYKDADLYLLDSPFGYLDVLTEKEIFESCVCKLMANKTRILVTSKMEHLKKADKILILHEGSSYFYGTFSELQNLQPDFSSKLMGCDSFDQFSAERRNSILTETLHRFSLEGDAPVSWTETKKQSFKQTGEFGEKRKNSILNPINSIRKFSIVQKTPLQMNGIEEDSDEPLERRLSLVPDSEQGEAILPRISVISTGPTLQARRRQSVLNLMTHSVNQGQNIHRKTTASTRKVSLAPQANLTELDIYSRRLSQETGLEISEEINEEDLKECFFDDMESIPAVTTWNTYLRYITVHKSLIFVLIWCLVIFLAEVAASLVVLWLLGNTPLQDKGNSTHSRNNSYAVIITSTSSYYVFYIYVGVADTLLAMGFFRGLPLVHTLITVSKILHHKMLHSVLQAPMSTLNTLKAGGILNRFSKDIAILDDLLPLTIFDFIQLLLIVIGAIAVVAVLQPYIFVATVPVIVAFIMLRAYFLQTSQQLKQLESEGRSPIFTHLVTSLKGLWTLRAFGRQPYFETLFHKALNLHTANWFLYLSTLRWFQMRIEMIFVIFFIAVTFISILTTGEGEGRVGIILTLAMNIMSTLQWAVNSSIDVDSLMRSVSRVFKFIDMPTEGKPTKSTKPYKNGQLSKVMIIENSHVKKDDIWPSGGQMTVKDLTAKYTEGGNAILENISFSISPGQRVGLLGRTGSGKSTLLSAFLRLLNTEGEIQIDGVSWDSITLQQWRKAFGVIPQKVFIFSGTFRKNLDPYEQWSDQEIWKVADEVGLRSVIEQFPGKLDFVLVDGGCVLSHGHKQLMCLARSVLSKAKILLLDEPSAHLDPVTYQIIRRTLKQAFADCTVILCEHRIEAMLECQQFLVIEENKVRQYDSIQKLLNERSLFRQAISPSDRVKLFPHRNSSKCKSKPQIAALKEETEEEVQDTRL
Sequence of CFTR (P13569 whole entry, species assumed): as the sequence (P13569 whole entry) above

As for `Cn1c(=O)c2c(-c3ccccc3)n3c(c2n(C)c1=O)C(c1ccc(Br)o1)Oc1ccc(C(=O)O)cc1-3` (racemic) [BPO-27, 6-(5-Bromofuran-2-yl)-7,9-dimethyl-8,10-dioxo-11-phenyl-7,8,9,10-tetrahydro-6H-benzo[b]pyrimido[4′,5′:3,4]pyrrolo[1,2-d][1,4]oxazine-2-carboxylic acid], in data set [1] (pH 7.4 aqueous phosphate buffer, read-out: solubility), the solubility is 17 µM (≈ 9.32 µg/mL). In addition, the IC50 in data set [2] is 40 nM; in data set [3] (Mus musculus, 100 μM 8-Br-cAMP, racemic mixture, read-out: IC50 for inhibition of cyst growth (percentage area occupied by cysts)), ~100 nM. Moreover, the “cyst growth in 8-Br-cAMP-treated kidney (in words)” value in data set [3] (compound in culture medium, 0.1 or 1 μM) is “remarkably reduced”.

As for `Cc1ccc(C2Nc3ccccc3-n3c(-c4ccccc4)c4c(=O)n(C)c(=O)n(C)c4c32)o1` (centres unmarked) [PPQ-102, 7,9-Dimethyl-6-(5-methylfuran-2-yl)-11-phenyl-5,6-dihydropyrimido[4′,5′-3,4]pyrrolo[1,2-a]quinoxaline-8,10-(7H,9H)-dione, reference compound], the solubility in data set [1] (albumin-free saline, saline or isotonic, read-out: water solubility) is ~2 µM (≈ 0.877 µg/mL). The figures for the IC50 in data set [4], in data set [2] and in data set [5] were > 500 nM, 250 nM and ~90 nM, respectively.

By solubility is commonly meant the dissolved amount per volume that the medium holds. In general, IC50 refers to the midpoint of a concentration-inhibition curve.
